Tests used:
[1] = mice, L-DOPA source in feed
Protocol: Feed was prepared in one of two ways depending on the source of L-DOPA. […] For purified L-DOPA, 1 g of purified L-DOPA is mixed in a 1:200 ratio with the feed powder. The mixed feed is then added to additional feed powder in a 1:4 ratio, creating a 1 mg/g L-DOPA feed.
For the 12-day trial 10 mice were placed in each group of control mice given feed plus the PBS gavage, a probiotic supplemented diet of normal feed plus a 1×10^9 CFU gavage of ML1082, and a synbiotic diet of feed with 1 mg/g supplemented pure L-DOPA and a 1×10^9 CFU gavage of ML1082. Behavioral testing was performed on days 11 and 12 (see below), followed by sacrifice and sample collection for UHPLC-ECD as above.

[2] = tested on: L-DOPA decarboxylase; experiment: Carbidopa inhibition of dopamine production by ML1082 in sSIM; assay type: cell-based, E. faecium; conditions: strain ML1082, sSIM
Protocol: A L-DOPA rich diet or a commonly prescribed 100 mg dose of L-DOPA would yield a concentration of about 1.0×10^−3 M concentration in sSIM. It follows then that a tablet that has 1:10 Carbidopa:L-DOPA tablet would likely result in a Carbidopa concentration of approximately 1/10th that on the order of 1.0×10^−4M (−log [Carbidopa]=4).
The IC50 was similar to the L-DOPA concentration of 1.26×10^−3 M, a finding that may indicate a competitive inhibitory mechanism for the bacterial enzyme.

[3] = tested on: E. coli
Text: Although this is a well-established finding, the chemical-mechanistic effects of catecholamines on prokaryotes are relatively poorly understood. Neurochemical exposure has the potential not only to alter growth profiles and behavior, but it also appears to trigger the production of unique chemicals.

[4] = tested on: circular muscle; conditions: read-out: EC50, induced contractions; cited from earlier work
[5] = tested on: longitudinal muscle; conditions: read-out: EC50, relaxation; cited from earlier work
[6] = tested on: distal colon; conditions: read-out: EC50 of maximal response; cited from earlier work

## N[C@@H](Cc1ccc(O)c(O)c1)C(=O)O [L-DOPA, L-3,4-dihydroxyphenylalanine]
[1]
  uptake of L-DOPA into the body before conversion by the probiotic: absorbed into the body before it could interact with the probiotics

## C[C@@](Cc1ccc(O)c(O)c1)(NN)C(=O)O [Carbidopa]
[2]
  inhibition of dopamine production: dose-dependent inhibition

## NCCc1ccc(O)c(O)c1 [dopamine]
[3]; LB supplied with dopamine, FIG. 6F
  production of the dopamine-induced compound by E. coli: little if any of this compound
[3]; sSIM spiked with 0.001 M dopamine
  chemical response of E. coli: novel chemical response
[4]
  EC50: 6.3 µM
[5]
  EC50: 29 µM
[6]
  EC50: 20 µM

Source: US12440519B2 (Iowa State University Research Foundation, Inc., priority 2017, dated 2025)
